Measurements from PubChem BioAssay AID434987 (Southern Research Specialized Biocontainment Screening …, 2010).
Active and inactive are the calls of the source. How the calls were made is not given here.

System: M. tuberculosis H37Rv growth inhibition with meropenem
Test: dose response, H37Rv, with and without meropenem (AID 434987);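 further: growth over 7 days at 37 °C before Alamar Blue read on day 9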
[1] = M. tuberculosis H37Rv growth inhibition, measured here: IC50 without meropenem
[2] = M. tuberculosis H37Rv growth inhibition, measured here: IC90 without meropenem
[3] = measured here: IC90 with meropenem

SMILES	IC50	IC50 [1] [µM]	IC90 [2] [µM]	IC90 [3] [µM]
CCOC(=O)c1nn(-c2ccc(F)cc2)c2nc(Nc3ccccc3)cc(=O)n12	> 100 µM (inactive)	> 100	> 100	> 100
O=C(Nc1nc2ccccc2[nH]1)c1ccccc1F	> 100 µM (inactive)	> 100	> 100	> 100
c1ccc(-c2noc(-c3cccc4ccccc34)n2)cc1	20.2 µM	> 100	> 100	> 100
CN(C(=O)Nc1ccc(Cl)cc1)n1cnc2ccccc2c1=O	44.9 µM (inactive)	95.9	> 100	48.6
Cn1c(=O)[nH]c(=O)c2c1nc(Br)n2CCC(=O)c1ccccc1	38.6 µM	> 100	> 100	> 50
CN(C)S(=O)(=O)n1cc(/C=C(\NC(=O)c2ccccc2)C(=O)NCCN2CCOCC2)c2ccccc21	> 100 µM (inactive)	> 100	> 100	> 100
CC(C)(C)OC(=O)N1CCC(NC(=O)c2[nH]cnc2C(=O)Nc2ccccc2)CC1	> 100 µM (inactive)	> 100	> 100	> 100
Fc1ccc(NC(=S)NCc2cccs2)cc1	> 100 µM (inactive)	> 100	> 100	> 100
COc1cc(NC(=S)NC(=O)c2cccs2)ccc1NC(=O)C(C)C	> 100 µM (inactive)	> 100	> 100	> 100
COc1cc(OC)cc(-c2c(C#Cc3ccsc3)c3cc(-c4ccc(OC)nc4)ccc3n2C)c1	> 100 µM (inactive)	> 100	> 100	> 100
Cn1c2ccccc2c(=O)c2cc(C#CC3(O)CCCCC3)ccc21	> 100 µM (inactive)	> 100	> 100	> 100
COC(=O)c1ccccc1NC(=O)CSCC(=O)Nc1ccc(F)cc1	39.7 µM (inactive)	94.9	> 100	> 100
COc1cc(C(=O)N/N=C/c2ccc(OC(=O)c3cccc(C)c3)cc2)ccc1O	4.54 µM	77.7	> 100	53.4
CN1CCN(c2ccccc2NC(=O)c2ccc(-c3ccc(Cl)c(Cl)c3)o2)CC1	7.5 µM	31.8	> 100	> 100
CSc1nc2cc3c(cc2n1C(=O)c1ccc(C)cc1)OCCO3	5.15 µM	> 100	> 100	> 100
O=C(CN1CCN(c2ccccn2)CC1)Nc1ccc(Cl)c(C(F)(F)F)c1	58.5 µM (inactive)	90.1	> 100	> 100
CCOC(=O)CSc1nnc(NC(=O)c2cccc(S(=O)(=O)N3CCCCC3)c2)s1	23.8 µM (inactive)	41	> 100	> 100
O=C1N=C(N2CCCC2)S/C1=C\c1cccc(Br)c1	30.9 µM (inactive)	55	> 100	> 100
COc1ccccc1NC(=O)c1cnc(Nc2ccccc2OC)c2ccccc12	37.2 µM	> 100	> 100	> 100

SMILES	IC50	IC50 [1] [µM]	IC90 [2] [µM]	IC90 [3] [µM]
CCCCN(C)Cc1cc(=O)oc2cc3c(cc12)CCCC3	64.3 µM (inactive)	80.1	> 100	82.2
N#Cc1cc2c(nc1SCC(=O)Nc1sc3c(c1C#N)CCC3)CCCC2	> 100 µM (inactive)	> 100	> 100	> 100
Cc1cc2c(N=NC(=O)C3CC3c3ccccc3)c(O)[nH]c2cc1Br (stereo not drawn)	> 100 µM (inactive)	> 100	> 100	> 100
Cn1cc(C(=O)N/N=C/C(Br)=C\c2ccccc2)ccc1=O	> 100 µM (inactive)	> 100	> 100	> 100
CCc1ccc(N2C(=O)c3sc4nnc(-c5ccccc5)c(=O)n4c3C2=O)cc1	> 100 µM (inactive)	> 100	> 100	> 100
COc1ccc(-c2csc(NC(CO)c3nc4ccccc4n3Cc3ccc(C)cc3)n2)cc1 (stereo not drawn)	25 µM (inactive)	48.4	57.2	26.4
NNC(=S)NC1CC2CC1C1C=CCC21 (stereo not drawn)	12.4 µM (inactive)	21.1	23.9	13.5
COc1ccc2nc(NC(=O)NC3CCCCC3)sc2c1	> 100 µM (inactive)	> 100	> 100	> 100
Cc1ccccc1NC(=O)/C(C#N)=C\c1cc(C)n(-c2ccc(C(=O)O)cc2)c1C	21 µM (inactive)	46.8	76.7	51.1
Cc1ccnn1CC(=O)N/N=C/c1ccc([N+](=O)[O-])s1	91.5 µM (inactive)	88.5	95.9	> 100
Cc1nn(-c2ccccc2)c(N2CCCC2)c1/C=C1\N=C(c2ccc(F)cc2)OC1=O	10.7 µM (inactive)	23.4	26.8	22.9
COc1ccc(-c2cc3cc(OC)c(OC)cc3c(C)n2)cc1	> 100 µM (inactive)	> 100	> 100	> 100
COc1cc(C(=O)Oc2ccccc2/C=N/NC(=O)c2ccc(C)c(Cl)c2)cc(OC)c1OC	1.96 µM	> 100	> 100	> 3.13
CC12CCC(C/C1=N\N=C1\NC(=O)/C(=C\c3cccc(Br)c3)S1)C2(C)C (stereo not drawn)	9.74 µM	26.6	37.3	37.7
CCOC(=O)c1ccc(N2CN(CCc3ccccc3)CNC2=S)cc1	26.9 µM	91.5	> 100	> 100
Nc1c(Cl)cc(-c2csc(N3CCCC3c3nc4cc(Cl)c(N5CCCCC5)cc4n3CCCO)n2)cc1Cl (stereo not drawn)	97.3 µM (inactive)	> 100	> 100	> 100
O=C1CS/C(=N/N=C2C3CC4CC(C3)CC2C4)N1	11.7 µM (inactive)	23.5	32.5	13.8
CC1=NN(c2ccccc2)C(=O)/C1=C/c1c(O)[nH]c(=S)[nH]c1=O	> 100 µM (inactive)	> 100	> 100	> 100
c1ccc2nc(-c3nc4ccccc4o3)ccc2c1	43.9 µM (inactive)	> 100	> 100	> 50

SMILES	IC50	IC50 [1] [µM]	IC90 [2] [µM]	IC90 [3] [µM]
COc1ccc(-c2nn(-c3ccccc3)cc2C(=O)Nc2nccs2)cc1OC	> 100 µM (inactive)	> 100	> 100	> 100
CC1CCc2nc(NC(=O)C3COc4ccccc4O3)sc2C1 (stereo not drawn)	26.2 µM (inactive)	51.9	> 100	> 100
CCn1c(-c2ccc(-c3ccccc3)cc2)c[nH]c1=S	29.1 µM (inactive)	47.8	> 100	> 100
CNC(=O)COC(=O)c1ccccc1NC(=O)c1ccco1	35.1 µM (inactive)	47.1	> 100	> 100
COc1ccc(/C=C2/CCCC(C(=O)C(F)(F)F)=C2O)cc1OC	34.6 µM	96.9	> 100	> 100
O=C(/C=C/c1ccccc1[N+](=O)[O-])c1ccc(F)cc1	19.8 µM	94.1	> 100	> 100
CCOC(=O)c1nc(N2CCN(C(=O)OCC)CC2)c2c3c(sc2n1)CCCC3	39.5 µM (inactive)	60.6	96.6	40.9
NC(=O)[C@@H]1CC2(CC(c3cccc(NC(=O)COc4ccc(Cl)cc4)c3)=NO2)CN1C(=O)COc1ccc(Cl)cc1 (stereo partly drawn)	75.4 µM (inactive)	> 100	> 100	> 100
O=c1c2c3n(c(=S)nc2[nH]n1-c1ccccc1)CCCCC3	12.4 µM (inactive)	27.1	> 100	13.3
COc1ccc(C2CC(c3c(-c4ccccc4)c4cc(Cl)ccc4[nH]c3=O)=NN2S(C)(=O)=O)cc1 (stereo not drawn)	> 100 µM (inactive)	> 100	> 100	> 100
CC1(C)C2CC=C(/C=N/NC(=O)c3ccccc3O)C1C2 (stereo not drawn)	65.7 µM (inactive)	> 100	> 100	> 100
O=C(/C=C/c1ccccn1)c1cc(Br)ccc1O	21.8 µM (inactive)	37.4	58.6	45.1
COc1cc(NC(=O)c2ccccc2F)c(OC)cc1NC(=O)CN1CCOCC1	29.2 µM	> 100	> 100	> 50
COC(=O)c1c(NC(=O)c2ccc(C)cc2)csc1C	48.9 µM (inactive)	84	> 100	> 100
O=C(Cn1nnc2c(cnn2-c2ccccc2)c1=O)N1CCN(c2ccccc2F)CC1	> 100 µM (inactive)	> 100	> 100	> 100
NC(N)=NS(=O)(=O)c1ccc(N)cc1	> 100 µM (inactive)	> 100	> 100	> 100
Cc1ccc(-c2nc3[nH]c(=O)cc(NC(=O)C(C)C)n3n2)cc1	7.36 µM	> 100	> 100	> 12.5
Cc1cc(C2C(=O)c3ccccc3C2=O)c(C)c(C)c1C	3.79 µM	34	> 100	16.4
NC(=O)CN1C(=O)C(O)(CC(=O)/C=C\C=C\c2ccccc2)c2ccccc21 (stereo not drawn)	> 100 µM (inactive)	> 100	> 100	> 100
